According to patent US12145947B2, “Pyrimidine based modulators and uses thereof” (Quanta Therapeutics, Inc., priority 2022, dated 2024):

What follows are compounds tested on GP2D cells (KRAS G12D), phospho-ERK (assay: pERK In Cell Western (ICW) assay, GP2D cells). Conditions: Table 4, 3 hours.
Type: cell-based
Procedure: pERK ICW is a high throughput screening assay to evaluate the cellular potency of mutant KRAS small molecule inhibitors. KRAS mutant cell lines AGS and GP2D (KRAS^G12D) were purchased from ATCC and maintained respectively in RPMI and DMEM medium supplemented with 10% fetal bovine serum and Penicillin/Streptomycin.
Cells grown in exponential phase were trypsinized, resuspended in fresh media, and viable cells were counted using a cell counter with Trypan Blue (BioRad TC20). Cells were seeded into 384-well plate (Greiner 781091) at density of 5,000 cells/well for AGS and 10,000 cells/well for GP2D and allowed to grow overnight in a 37° C. CO2 incubator. The next day, compounds were dispensed into wells with a ½ log, 10-point serial dilution and top concentration of […] using Tecan D300e dispenser and incubated for 3 hours in a 37° C. CO2 incubator. Cells were then fixed with paraformaldehyde (Electron Microscopy Sciences, 15710, 4% final concentration) for 30 min, permeabilized with wash buffer (1×PBS+0.1% Triton X-100) for 30 min and blocked with Odyssey blocking buffer (Li—COR 927-70001) for 1 hour, all at room temperature (RT). Phospho-ERK antibody (CST 4370L) was diluted 1:500 in Odyssey blocking+0.2% Tween 20 and incubated with cells overnight at 4° C. The next day, plates were washed 5× with wash buffer, incubated with IRDye 800 CW, Goat anti-Rabbit secondary antibody (Li—COR 926-32211, 1:500) and DRAQ5 (CST 4084L, 1:5,000) diluted in Odyssey blocking+0.2% Tween 20 for 1 hour, washed 5×, and imaged on an Odyssey CLx imaging system.
For data analysis, signal intensities from 800 (phosphor-ERK) and 700 (DRAQ5) channels were extracted, and phospho-ERK signals were normalized to DRAQ5 signals for each well and percent of DMSO control values were computed. Data were then imported into Graphpad Prism to compute half-maximal inhibitory concentrations (IC50) using a 4-parameter variable slope model. Z-factor for each plate was computed from signals derived from wells treated with either DMSO or […] of Trametinib. AGS pERK ICW (Method B) IC50 (uM) values of selected compounds are depicted in Table 2 with compounds having a value 0.001 uM to 0.01 uM as ++++; >0.01 uM to 0.1 uM as +++; >0.1 uM to 1 uM as ++; 1 uM to 10 uM as + and >10 uM as NA.

Structure (SMILES)	IC50
C=C1CN2CCCC2(COc2nc(N3CCCn4nc(C(=O)N(C)C)c(Cl)c4C3)c(C#N)c(N3CC4(CCc5sc(N)c(C#N)c54)C3)n2)C1 (centres unmarked) [Compound 93, 5-[6-(2-amino-3-cyano-spiro[5,6-dihydrocyclopenta[b]thiophene-4,3′-azetidine]-1′-yl)-5-cyano-2-[(6-methylene-2,3,5,7-tetrahydro-1H-pyrrolizin-8-yl)methoxy]pyrimidin-4-yl]-3-chloro-N,N-dimethyl-4,6,7,8-tetrahydropyrazolo[1,5-a][1,4]diazepine-2-carboxamide]	0.001 to 0.01 µM
CN(C)CC1(COc2nc(N3C[C@H]4CC[C@@H](C3)N4)c(C#N)c(N3CC4(CCc5sc(N)c(C#N)c54)C3)n2)CC1(F)F (mixture of isomers) [Compound 74, 2-amino-1′-[5-cyano-6-(3,8-diazabicyclo[3.2.1]octan-3-yl)-2-[[1-[(dimethylamino)methyl]-2,2-difluoro-cyclopropyl]methoxy]pyrimidin-4-yl]spiro[5,6-dihydrocyclopenta[b]thiophene-4,3′-azetidine]-3-carbonitrile]	1 to 10 µM
N#Cc1c(N2CCCC(O)CC2)nc(OC[C@@]23CCCN2C[C@H](F)C3)nc1N1CC2(CCc3sc(N)c(C#N)c32)C1 (stereo partly drawn) [Compound 40, 2-amino-1′-[5-cyano-6-(4-hydroxyazepan-1-yl)-2-[[(2R,8S)-2-fluoro-1,2,3,5,6,7-hexahydropyrrolizin-8-yl]methoxy]pyrimidin-4-yl]spiro[5,6-dihydrocyclopenta[b]thiophene-4,3′-azetidine]-3-carbonitrile]	0.1 to 1 µM
N#Cc1c(N2C[C@H]3CC[C@@H](C2)N3)nc(OCC2(c3ccn[nH]3)CC2)nc1N1CC2(CCc3sc(N)c(C#N)c32)C1 [Compound 98, 2-amino-1′-[5-cyano-6-[(1R,5S)-3,8-diazabicyclo[3.2.1]octan-3-yl]-2-[[1-(1H-pyrazol-5-yl)cyclopropyl]methoxy]pyrimidin-4-yl]spiro[5,6-dihydrocyclopenta[b]thiophene-4,3′-azetidine]-3-carbonitrile]	1 to 10 µM
Cn1nccc1COc1nc(N2C[C@H]3CC[C@@H](C2)N3)c(C#N)c(N2CC3(CCc4sc(N)c(C#N)c43)C2)n1 [Compound 97, 2-amino-1′-[5-cyano-2-[(2-methylpyrazol-3-yl)methoxy]-6-[(1R,5S)-3,8-diazabicyclo[3.2.1]octan-3-yl]pyrimidin-4-yl]spiro[5,6-dihydrocyclopenta[b]thiophene-4,3′-azetidine]-3-carbonitrile]	0.1 to 1 µM
C=C1CN2CCCC2(COc2nc(N3C[C@H]4CC[C@@H](C3)N4)c(C#N)c(N3CC4(CCc5sc(N)c(C#N)c54)C3)n2)C1 (stereo partly drawn) [Compound 94, 2-amino-1′-[5-cyano-2-[(6-methylene-2,3,5,7-tetrahydro-1H-pyrrolizin-8-yl)methoxy]-6-[(1R,5S)-3,8-diazabicyclo[3.2.1]octan-3-yl]pyrimidin-4-yl]spiro[5,6-dihydrocyclopenta[b]thiophene-4,3′-azetidine]-3-carbonitrile]	0.001 to 0.01 µM
N#Cc1c(N2C[C@H]3CC[C@@H](C2)N3)nc(OC[C@@H]2CCN2CC(F)(F)F)nc1N1CC2(CCc3sc(N)c(C#N)c32)C1 [Compound 92, 2-amino-1′-[5-cyano-6-[(1R,5S)-3,8-diazabicyclo[3.2.1]octan-3-yl]-2-[[(2S)-1-(2,2,2-trifluoroethyl)azetidin-2-yl]methoxy]pyrimidin-4-yl]spiro[5,6-dihydrocyclopenta[b]thiophene-4,3′-azetidine]-3-carbonitrile]	1 to 10 µM

Same assay, conditions: Table 4, 3 hours, listed as 74.2

Structure (SMILES)	IC50
CN(C)CC1(COc2nc(N3CC4CCC(C3)N4)c(C#N)c(N3CC4(CCc5sc(N)c(C#N)c54)C3)n2)CC1(F)F (centres unmarked) [Compound 74B, 2-amino-1′-[5-cyano-6-(3,8-diazabicyclo[3.2.1]octan-3-yl)-2-[[(1*)-1-[(dimethylamino)methyl]-2,2-difluoro-cyclopropyl]methoxy]pyrimidin-4-yl]spiro[5,6-dihydrocyclopenta[b]thiophene-4,3′-azetidine]-3-carbonitrile]	1 to 10 µM
